We go through 2 molecules from publication PMC12589562, “Structural and functional characterization of TgGSK3, a druggable kinase in Toxoplasma gondii” (Nature Communications, 2025).

pKd: −log10 of the molar value.

As usually defined, the pKd is the Kd on a negative log10 scale, so that one unit is a factor of ten. For orientation: stoichiometry N means a count of units in the complex or per binding partner.

In experiment [1] the target is T1, TgGSK3 (Toxoplasma gondii, UniProt A0A125YY75).
T1 construct: gene TGGT1_265330; kinase domain, aa 46-385 (orthorhombic crystal) and aa 20/21-385 (monoclinic crystal)
The experiment is described as follows: X-ray co-crystal structure ([…] Å and […] Å); microscale thermophoresis; Kinase-Glo inhibition (IC50 […]). Format: binding. Background: In MST a laser heats a spot of the sample, and binding alters the fluorescence response.

The target in experiment [2] is recombinant TgGSK3 (amino acids 21-385), C-terminal 6His (Toxoplasma gondii). Briefly: crystal structure; monoclinic crystal at 3.0 A of TgGSK3 (aa 20 to 385) with LY2090314; hanging drops in 5% MPD, 9% PEG 6000, 0.1 M Tris pH 7.5; crystals grew after several weeks; four subunits in the asymmetric unit.

Molecule `O=C1NC(=O)C(c2cnc3ccccn23)=C1c1cn2c3c(cc(F)cc13)CN(C(=O)N1CCCCC1)CC2` [compound 209, LY2090314] had a pKd in experiment [1] of 7.47.

On to “recombinant TgGSK3 (amino acids 21-385), C-terminal 6His (from UniProt A0A125YY75 21-385) (enzyme)”, for which the stoichiometry N in experiment [2] came to 2.
